These results are taken from ChEMBL document CHEMBL3988442, “University of Dundee, Small-Polar-MMV Screening Library” (2021).

Values joined by “and” are separate entries in the source; they are usually repeats but may differ in a detail not shown here. Equal values may be shown once.

The test deals with Polyketide synthase Pks13 (Mycobacterium tuberculosis (strain ATCC 25618 / H37Rv), UniProt I6X8D2). As to the kind of experiment: Mycobacterium tuberculosis Polyketide synthase 13 Thioesterase (PKS13). In kind it is functional.
Chain of Polyketide synthase Pks13 (I6X8D2 whole entry): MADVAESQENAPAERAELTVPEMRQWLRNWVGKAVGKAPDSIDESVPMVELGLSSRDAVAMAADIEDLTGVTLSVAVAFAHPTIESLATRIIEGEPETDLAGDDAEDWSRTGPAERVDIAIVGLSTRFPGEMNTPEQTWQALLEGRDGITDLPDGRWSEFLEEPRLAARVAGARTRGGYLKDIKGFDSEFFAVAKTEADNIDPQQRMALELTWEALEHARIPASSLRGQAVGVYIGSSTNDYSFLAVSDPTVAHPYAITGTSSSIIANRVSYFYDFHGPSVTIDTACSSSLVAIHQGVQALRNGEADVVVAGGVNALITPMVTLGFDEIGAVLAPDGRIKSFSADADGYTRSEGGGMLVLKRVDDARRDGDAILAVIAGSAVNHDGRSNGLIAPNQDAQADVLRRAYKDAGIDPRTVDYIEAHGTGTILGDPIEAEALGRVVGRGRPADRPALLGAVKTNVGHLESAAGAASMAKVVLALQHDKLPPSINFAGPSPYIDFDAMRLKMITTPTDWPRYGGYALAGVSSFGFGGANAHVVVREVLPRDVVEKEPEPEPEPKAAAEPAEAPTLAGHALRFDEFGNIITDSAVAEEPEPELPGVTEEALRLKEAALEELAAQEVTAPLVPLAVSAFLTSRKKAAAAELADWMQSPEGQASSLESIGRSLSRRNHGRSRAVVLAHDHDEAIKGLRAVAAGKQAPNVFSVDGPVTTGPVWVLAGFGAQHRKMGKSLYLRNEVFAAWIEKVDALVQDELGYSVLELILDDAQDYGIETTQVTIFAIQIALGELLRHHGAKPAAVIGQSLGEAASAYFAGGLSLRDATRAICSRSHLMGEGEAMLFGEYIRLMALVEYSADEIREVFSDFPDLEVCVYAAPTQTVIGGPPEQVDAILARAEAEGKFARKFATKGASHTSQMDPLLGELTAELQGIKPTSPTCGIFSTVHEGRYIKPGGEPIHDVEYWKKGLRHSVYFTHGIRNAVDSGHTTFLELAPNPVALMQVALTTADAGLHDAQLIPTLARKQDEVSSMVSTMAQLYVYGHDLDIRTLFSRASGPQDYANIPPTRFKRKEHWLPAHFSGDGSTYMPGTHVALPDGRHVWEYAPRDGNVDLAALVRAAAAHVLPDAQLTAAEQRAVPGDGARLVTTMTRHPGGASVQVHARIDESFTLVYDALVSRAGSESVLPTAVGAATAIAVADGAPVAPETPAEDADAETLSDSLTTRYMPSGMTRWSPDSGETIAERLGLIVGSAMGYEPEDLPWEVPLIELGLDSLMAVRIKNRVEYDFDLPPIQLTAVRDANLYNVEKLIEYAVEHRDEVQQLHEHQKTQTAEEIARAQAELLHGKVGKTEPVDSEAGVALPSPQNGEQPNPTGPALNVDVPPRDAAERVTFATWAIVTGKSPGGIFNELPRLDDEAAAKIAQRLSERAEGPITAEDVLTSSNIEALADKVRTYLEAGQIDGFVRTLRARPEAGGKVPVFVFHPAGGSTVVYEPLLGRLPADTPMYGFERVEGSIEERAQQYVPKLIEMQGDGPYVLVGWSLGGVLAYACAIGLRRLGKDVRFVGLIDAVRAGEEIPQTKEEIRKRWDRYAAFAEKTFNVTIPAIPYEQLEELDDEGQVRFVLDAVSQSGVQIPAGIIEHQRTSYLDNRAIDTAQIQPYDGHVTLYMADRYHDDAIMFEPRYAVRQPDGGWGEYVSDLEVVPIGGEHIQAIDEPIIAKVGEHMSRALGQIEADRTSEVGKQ

For orientation: IC50 means the concentration that inhibits the measured activity by half. Read a high IC50 as weaker potency. Turning to `Cc1ccccc1S(=O)(=O)N[C@@H]1CC[C@@H](N2CCNC(=O)C2)[C@@H]1O`, the 50% inhibitory concentration (IC50) is above 100 µM.
For `Cc1ncc(CN)c(-c2cn(C)c3ccccc23)n1`, the IC50 was 89.1 µM and > 100 µM.
The same measure for `CS(=O)(=O)N1CCCC1c1cccc(Cc2ccccc2F)n1` (configuration not stated): above 100 µM; for `CNc1cncc(C2CCCN2C(=O)Cn2c(=O)oc3ccccc32)n1` (configuration not stated): 30.2 µM and > 57.5 µM.
The same measure for `CCc1cccc(C)c1NC(=O)C1CC(=O)N(Cc2ccccn2)C1` (configuration not stated): above 100 µM.
Under `CC(C)(C)c1nc(CN(CCC2CCCCC2)CC(N)=O)no1` stands above 100 µM.
For `Cc1ccc(C)c(OC2CCN(C(=O)CNc3ccccc3Cl)CC2)c1`, the half-maximal inhibitory concentration (IC50) was 10.7 µM and 12.7 µM.
The same measure for `Cc1nc(CN(C)C(=O)NC(C)c2ccc3c(c2)OCCO3)cs1` (configuration not stated): above 100 µM.
Under `CS(=O)(=O)CCCSc1n[nH]c(-c2ccc3c(c2)CCC3)n1` stands 5.44 µM and 19.5 µM; under `N#Cc1c(N2CCCN(C3CCOCC3)CC2)nc2ccccn12`, above 100 µM.
The same measure for `Cc1cccc(OC2CCN(c3nccnc3C#N)CC2)n1`: 42.2 µM and 46 µM; for `CC(Nc1cnn(C)c(=O)c1Cl)c1ccc(F)c(F)c1` (configuration not stated): above 100 µM.
On to `O=C(Nc1cc(CSCCO)ccn1)c1ccc(Cl)o1`, for which the half-inhibitory concentration (IC50) was > 100 µM and 98.1 µM.
The same measure for `Cc1cc(NCc2cccc(C#N)c2)ccc1Br`: 20.6 µM and 18 µM; for `CC(NC(=O)N1CCC(CO)CC1)c1csc2ccccc12` (configuration not stated): above 100 µM.
Under `Cc1cccc(COc2ccc(NC(=O)C(C)NC(N)=O)c(C)c2)c1` (configuration not stated) stands above 100 µM; under `NC(=O)CCSc1ccccc1NCc1ccc(Cl)s1`, 6.92 µM and 6.81 µM; under `COc1ccccc1N1CCC(CNS(=O)(=O)c2cccs2)C1` (configuration not stated), 10.3 µM and 4.51 µM.
Under `Cc1nc(-c2ccc(Cl)s2)sc1C(=O)N(C)CC(N)=O` stands 30.9 µM and 43.8 µM; under `NC(=O)N1CCCN(CCc2nc(-c3cccc(Cl)c3)no2)CC1`, above 100 µM.
For the compound `Cc1cccc(C(C)CNS(=O)(=O)CCCC#N)c1` (configuration not stated), the concentration for half-maximal inhibition (IC50) is above 100 µM.
The same measure for `CC(C)N1Cc2cccc(NCC(=O)N(C)C3CCCCC3)c2C1`: above 100 µM; for `O=C(COCc1ccccc1Cl)N1CCN(c2ccc(Br)cn2)CC1`: 26.1 µM and 19.2 µM.
For the compound `COc1ccc(C2CCCN2C(=O)c2cc3c([nH]c2=O)CCC3)cc1` (configuration not stated), the IC50 is 31.9 µM and 34.5 µM.
The same measure for `CNC(=O)c1cnc(/C=C/c2cc(OC)cc(OC)c2)s1`: 29.1 µM and 11 µM.
`CN(C)c1nccc(-c2c[nH][nH]c2=O)n1` showed an IC50 above 100 µM.
The same measure for `Cc1csc2ncc(-c3ccnc(N4CCCC4)n3)c(=O)n12`: above 100 µM.
With `COc1ccc2[nH]cc(-c3ccnc(N4CCC(C)CC4)n3)c2c1`, the half-inhibitory concentration (IC50) is 33.7 µM and 30 µM.
Under `CC[C@H](C)[C@H](N)C(=O)Nc1nc(-c2cnc(N(C)C)nc2)cs1` stands above 100 µM.
Consider `Cc1cn2c(=O)c(-c3ccnc(N4CCC[C@@H]4CO)n3)cnc2s1`, for which the concentration for half-maximal inhibition (IC50) is above 100 µM.
The same measure for `CS(=O)(=O)NCc1cc(-c2cc(F)cc(F)c2)nc(N2CC[C@H](O)C2)n1`: above 100 µM.
Under `c1ccc2c(c1)CN(c1ncnc3sc4c(c13)CCNC4)CCO2` stands above 100 µM; under `CC(=O)c1ccc(N2CCCC(CO)(CCc3ccccc3)C2)nc1` (configuration not stated), 72.2 µM and 69.8 µM; under `COCCc1noc(-c2cn(CCc3ccccc3)nn2)n1`, 20.8 µM and 8.65 µM.
`CCNc1ncc(C(=O)N2CCc3c(nc(C)nc3N(C)C)C2)cn1` showed an IC50 above 100 µM.
For the compound `Cc1n[nH]c(C)c1CCN(C)c1ccc(-c2nc(C3CC3)no2)cn1`, the IC50 was above 100 µM.
The same measure for `C[C@H](NC(=O)c1cccc(CCC(C)(C)O)c1)C(N)=O`: above 100 µM; for `Cc1ccc(C(=O)N2CCC3(CC2)c2ccccc2[C@@H](N)[C@@H]3O)c(=O)[nH]1`: above 100 µM.
With `CN(C)C[C@@H]1[C@H]2CN(C(=O)c3cc(=O)[nH]c4ccc(F)cc34)C[C@@H]12`, the IC50 was 98.5 µM and > 100 µM.
The same measure for `N#Cc1cccc(N2CCCC(CO)(CCOc3ccccc3)C2)n1` (configuration not stated): 34.6 µM and 6.67 µM; for `CC(C)c1nc(CN2CCc3onc(-c4cccc(F)c4)c3C2)no1`: above 100 µM.
Under `O=c1[nH]c2cc3c(cc2cc1CN1CCCC1c1ccccn1)OCO3` (configuration not stated) stands > 100 µM and 70.3 µM; under `CCC[C@H]1CN(S(C)(=O)=O)C[C@@H]1NC(=O)c1ccc(COC)cc1`, above 100 µM; under `COc1cccc(C(=O)N2CCc3c(nc(N)[nH]c3=O)C2)c1C`, above 100 µM.
With `Cc1n[nH]c(SCC(=O)N2C[C@H]3CC[C@@H]2CN(c2ncccn2)C3)n1`, the half-maximal inhibitory concentration (IC50) is above 100 µM.
Under `COc1cccc(-c2noc(-c3ccc(NCC(C)C)nc3)n2)c1OC` stands 15.7 µM and 26.8 µM.
The same measure for `COCC1CCN(C(=O)c2cc(-c3ccco3)nc3c(Cl)cccc23)C1` (configuration not stated): 34.6 µM and > 100 µM; for `CN1CC2(CCCN(Cc3nnc(-c4ccco4)o3)CC2)OC1=O` (configuration not stated): above 100 µM; for `COc1cccc(N2CCN(C(=O)C(O)c3ccccc3Cl)CC2=O)c1` (configuration not stated): above 100 µM.
The same measure for `CC1(C(=O)NCc2cccnc2Oc2ccc(F)c(F)c2)CCCNC1` (configuration not stated): above 100 µM; for `CCOc1ccc2nc(CN3CCOC(CN)C3)ccc2c1` (configuration not stated): above 100 µM.
`c1cnc(N2CCC3(CCCN(CC4CCCCC4)C3)C2)cn1` (configuration not stated) had a 50% inhibitory concentration (IC50) above 100 µM.
The same measure for `CCC(C)Nc1ccc(-c2nc(-c3cccc(OC)c3OC)no2)cn1` (configuration not stated): 28.7 µM and 14 µM; for `Nc1cc(C(=O)NCC2CCN(Cc3ccncc3F)C2)ccn1` (configuration not stated): above 100 µM; for `Cc1ccc(-c2cc(C(=O)NCCCc3csc(N)n3)[nH]n2)s1`: 9.27 µM and 17 µM.
Under `O=C(O)[C@]12CCCN(Cc3ccccn3)[C@@H]1CCN(c1cnccn1)C2` stands above 100 µM; under `N#Cc1cccnc1N1CCCC(CO)(Cc2cccc(Cl)c2)C1` (configuration not stated), 26.7 µM and 23.5 µM; under `Cn1cc(-c2ccnc(NCC3CCN(Cc4ccccc4)C3)n2)cn1` (configuration not stated), > 100 µM and 60.6 µM.
The same measure for `COCCN1CCCC2(CCN(c3nccnc3N(C)C)C2)C1=O` (configuration not stated): above 100 µM; for `CCN1CCC(N[C@@H]2CC[C@@H]2NC(=O)Cc2csc(C)n2)CC1`: above 100 µM.
In the case of `N#Cc1cccc(N2CCC(CO)(CCOc3ccccc3)CC2)n1`, the IC50 was 48.2 µM and 33.8 µM.
As for `O=C(O)C1c2nc[nH]c2CCN1Cc1ccccc1-c1ccccc1` (configuration not stated), the IC50 was above 100 µM.
Under `Cc1nn(C)cc1-c1ccnc(N(C)Cc2ccoc2)n1` stands above 100 µM.
Under `CCOCCN1CCN([C@@H]2c3ccccc3C3(CCNCC3)[C@H]2O)CC1` stands above 100 µM.
The same measure for `CCOCCC(=O)N1CCc2cccc(S(=O)(=O)N3CCOCC3)c2C1`: > 100 µM and 20.4 µM.
For `N#Cc1cccc(N2CCC(CO)(CCCc3ccccc3)CC2)n1`, the IC50 was > 18.6 µM and 25.5 µM.
The same measure for `CCN1CC(C(=O)N2CCN(c3nsc4ccccc34)CC2)CCC1=O` (configuration not stated): 90.7 µM and 73 µM; for `O=C(c1cnccn1)N1C[C@@H]2CC[C@H](C1)N(S(=O)(=O)c1cccnc1)C2`: above 100 µM.
Under `CSc1ccc2cc(CN(C)CCO)c(=O)[nH]c2c1` stands 31.4 µM; under `OCC1(CCOc2ccccc2)CCCN(c2ccc(Cl)cn2)C1` (configuration not stated), 29 µM and 32.3 µM; under `CSCc1ccc(N2CCC(C(O)Cc3ccccc3)CC2)nc1` (configuration not stated), above 100 µM.
The same measure for `O=S(=O)(c1c(N2CCCCC2)ccc2nonc12)N1CCCCC1`: 26.1 µM and 29.2 µM.
As to `O=c1[nH]c(NC2CCCC2)nc2nccc(-c3cccs3)c12`, the half-inhibitory concentration (IC50) was 8.33 µM and 21.7 µM.
Under `COc1cccc(-c2cc(NCC(=O)O)nc3[nH]ccc23)n1` stands 29.9 µM and 35.7 µM; under `COc1ccc2c(C(=O)N(C)C)cc(-c3cnc(N)nc3)nc2c1`, 30.4 µM and 38.7 µM.
Under `CCn1cc(-c2cc(C(F)F)n3nc(CC(=O)O)nc3n2)cn1` stands 15.7 µM and 16.4 µM; under `NC(=O)CSc1nccc(-c2ccc3c(c2)OCO3)n1`, 20 µM and 18.9 µM; under `Cn1cc(-c2cc(C(F)F)n3nc(CCC(=O)O)nc3n2)cn1`, 12 µM and 19.8 µM.
Under `Cc1cnn(CC(C)NCC(=O)NCCOc2ccccc2)c1` (configuration not stated) stands above 100 µM; under `CCOCC1CCCN(C(=O)NCc2ccc(-c3ccn[nH]3)cc2)C1` (configuration not stated), above 100 µM; under `CCc1nnc(CN2CCOC(Cn3cc(C)cn3)C2)o1` (configuration not stated), above 100 µM.
As to `O=C(c1cnc2c(cnn2C2CCCC2)c1)N1CCN(CCO)CC1`, the IC50 was above 100 µM.
Under `CCN(Cc1nc2c(cnn2C)c(=O)[nH]1)c1ccccc1` stands above 100 µM; under `COCc1nc(C(=O)N2CCCC2c2ccc(OC)cc2)cs1` (configuration not stated), above 100 µM.
The same measure for `c1csc(-c2noc(CCCN3CCCC3Cn3cncn3)n2)c1` (configuration not stated): above 100 µM; for `O=C(c1cc2cc(F)ccc2[nH]1)N1CCC(Nc2ccc(F)cc2)CC1`: > 100 µM and 12.6 µM; for `CC(C)(C)c1cc(NC(=O)CN2CCC(N3CCNC3=O)CC2)on1`: above 100 µM.
The same measure for `O=C(O)c1csc(S(=O)(=O)Nc2cccc(OCC(F)(F)F)c2)c1`: 36 µM and 20.4 µM; for `CCc1nc2n(n1)CC(NCc1ncc(-c3ccccc3)o1)CC2` (configuration not stated): above 100 µM; for `Cc1nc(-c2ccc(Cl)s2)sc1C(=O)NCCS(N)(=O)=O`: 33.3 µM and 21 µM.
Regarding `Cn1ccc(C(=O)NC2CCN(c3ncccn3)CC2)cc1=O`, the IC50 is above 100 µM.
Under `Cc1cccc(-c2ccc(C(=O)NCC(C)(C)C(N)=O)c(=O)[nH]2)c1` stands 25 µM and 32 µM.
Regarding `CC(O)CN1CCC(CNCc2cccc(C(N)=O)c2)CC1` (configuration not stated), the IC50 is above 100 µM.
Under `Cc1ccc(CNC(=O)NCCCn2nc3ccccn3c2=O)s1` stands above 100 µM.
Compound `CC(NC(=O)Nc1cccnc1N1CCCC1)c1nncn1C` (configuration not stated) gave an IC50 above 100 µM.
The same measure for `Cc1ccc(-c2ncc(C(=O)NCCNc3ncccn3)s2)c(C)c1`: 12 µM and 14.8 µM; for `CC(NC(=O)CN(C)S(C)(=O)=O)c1nnc2n1CCCCC2` (configuration not stated): above 100 µM.
Under `Cn1ccc(C(=O)NCc2cccc(CN3CCCC3)c2)cc1=O` stands above 100 µM; under `CN(CC1CCCCC1)C(=O)c1ccc(-n2ncc(C#N)c2N)cc1`, 40.8 µM and 6.64 µM.
Regarding `Cn1ccc(C(=O)NCc2cccc(NC(=O)C3CCC3)c2)cc1=O`, the IC50 was above 100 µM.
As to `CC(C)c1nc(CN(C)C2CCN(CCNS(C)(=O)=O)C2)no1` (configuration not stated), the half-maximal inhibitory concentration (IC50) is above 100 µM.
Under `O=C(C1CC1)N1CCc2ccccc2C12CCNCC2` stands above 100 µM.
